Several values for one entry are separate records, joined by “and”; a condition that tells them apart may be missing. Identical values can stand only once.
Assays:
SL13 cells [1] = experiment: ADDIT assay (addition of de novo initiated telomeres; modified STELA with PacBio sequencing or Southern blot); assay type: cell-based, mouse; details: for de novo telomere addition / telomere elongation in ADDIT assay (in words): PacBio sequencing of STELA products, compared to controls; for percentage of CCS reads with de novo telomere addition (mean and SEM): SL13 cells pretreated prior to doxycycline, 10 μM KU55933, 3 μM Olaparib, 100 nM siATM, multiple experiments
Excerpt: To critically access the role of ATM, as well as other potential telomere length regulators, an assay was developed that measures telomere repeat addition in cells over 48 hr. CAST/EiJ mouse fibroblast cell line was engineered to (SL13) contain a conditional mTR allele and a modified chromosome 4 (chr4) with an internal 480 bp telomere ‘seed’ sequence followed by a unique I-Sce1 endonuclease cut site (FIG. 5 and see Experimental Procedures). The internal telomere ‘seed’ sequence can be conditionally exposed by I-Sce1 endonuclease cleavage (FIG. 1A) and then be elongated by telomerase in a manner similar to de novo telomere addition shown to occur in yeast (Diede and Gottschling, 1999, Cell 99, 723-733).
To better detect the telomere elongation, the single telomere length analysis (STELA) assay was modified (Baird et al., 2004, Hum Mol Genet 13, 1515-1524), to measure telomere length at the in vivo cut chr4. The linker, ‘telorette’, was ligated to the telomere and PCR amplified the telomere using the ‘teltail’ primer and an internal primer in the hygromycin resistance (HYG) sequence on the engineered chromosome (FIG. 1B). To determine the un-extended cut chromosome length in vitro, a different linker was designed, ‘IScerette’, which anneals to the 4-nt 3′ overhang created by the I-Sce1 endonuclease (FIG. 1B). PCR using the forward primers, F1 or F2, and the teltail generated products of predicted size on a Southern blot (data not shown).
To further verify telomere addition had occurred, the PCR products were sequenced with Pacific Biosciences (PacBio®) sequencing. PacBio® produces long sequence reads that allowed us to determine telomere length. While sequencing errors, predominantly point insertions and deletions, occurred as expected, the telomere repeats were easily recognizable. To assure products were full length, the PacBio® reads were filtered to examine only those that had the unique HYG sequence followed by the seed telomere repeat sequence and also had the ‘teltail’ primer sequence (FIG. 6). […] The I-Sce1 site is shown boxed (FIG. 1C). Three regions of variant telomere repeats were noted, evident as darker stripes in the aligned reads, that were present in the original SL13 clone, and served as useful sequence reference points (FIG. 1C). If there were degradation past these variants and then new TTAGGG (SEQ ID NO: 100) repeat synthesis in vivo, these landmarks would be removed.
The sequence length distribution in the ADDIT assay represents telomere elongation, incomplete telomere replication and in vivo end resection (as well as PacBio® sequencing errors).
Cell lines were grown in DMEM (Gibco) supplemented with 1% Penicillin/Streptomycin/Glutamine (PSG) and 10% heat inactivated FBS (Invitrogen). SL13 cells were grown in DMEM (Gibco) supplemented with 1% PSG and 10% Tet system approved FBS (Clontech, #631107). Cells were treated with ATM inhibitor KU55933 (R&D Systems, #3544), ATR inhibitor VE821 (Selleckchem, #S8007) or PARP1 inhibitor Olaparib (Selleckchem, #1060) at indicated concentrations or DMSO as a control. For the ADDIT assay, SL13 cells were treated with final concentration 2 μg/ml of doxycycline for typically 48 hr or as indicated.
The original STELA protocol used for human cells (Baird et al., 2004, Hum Mol Genet 13, 1515-1524) was modified to measure telomere lengths on the cut end of chr4 in SL13 cells. Briefly, genomic DNA was extracted using Puregene Core Kit A™ (Qiagen). 4 μg of genomic DNA was digested with Sph1 (NEB) and later diluted to 10 ng/μl in water. For the in vitro IScerette sample, genomic DNA was digested with SphI and I-SceI (NEB) prior to ligation. The ligation was carried out at 35° C. for at least 12 hr in a volume of 10 μl containing 10 ng of digested genomic DNA, 0.9 μM of telorette linkers or IScerette linker and 0.5 U of T4 DNA ligase (NEB) in 1×T4 ligation buffer. […]

human HCT116 = experiment: Bulk telomere length, Southern blot, HCT116; assay type: cell-based; details: HCT116 cells
SL13 cells [2] = experiment: Telomere Southern blot after lentiviral overexpression of mTR and mTERT; assay type: cell-based, mouse; details: SL13 cells transduced with lentivirus expressing mTR and mTERT; day 6
telomerase = biological target: T1, telomerase (Homo sapiens, UniProt O14746); experiment: Direct telomerase activity assay in lysates of treated cells; assay type: cell-based; details: 293TREx-0611 cells; 30 μM KU55933 or 5 μM Olaparib for two hours
T1 construct: expressed in transfected cells; host or cells: 293TREx-0611 cells overexpressing TPP1, POT1 and hTERT, transfected with U1-hTR; whole cell lysate
T1 sequence (O14746 whole entry): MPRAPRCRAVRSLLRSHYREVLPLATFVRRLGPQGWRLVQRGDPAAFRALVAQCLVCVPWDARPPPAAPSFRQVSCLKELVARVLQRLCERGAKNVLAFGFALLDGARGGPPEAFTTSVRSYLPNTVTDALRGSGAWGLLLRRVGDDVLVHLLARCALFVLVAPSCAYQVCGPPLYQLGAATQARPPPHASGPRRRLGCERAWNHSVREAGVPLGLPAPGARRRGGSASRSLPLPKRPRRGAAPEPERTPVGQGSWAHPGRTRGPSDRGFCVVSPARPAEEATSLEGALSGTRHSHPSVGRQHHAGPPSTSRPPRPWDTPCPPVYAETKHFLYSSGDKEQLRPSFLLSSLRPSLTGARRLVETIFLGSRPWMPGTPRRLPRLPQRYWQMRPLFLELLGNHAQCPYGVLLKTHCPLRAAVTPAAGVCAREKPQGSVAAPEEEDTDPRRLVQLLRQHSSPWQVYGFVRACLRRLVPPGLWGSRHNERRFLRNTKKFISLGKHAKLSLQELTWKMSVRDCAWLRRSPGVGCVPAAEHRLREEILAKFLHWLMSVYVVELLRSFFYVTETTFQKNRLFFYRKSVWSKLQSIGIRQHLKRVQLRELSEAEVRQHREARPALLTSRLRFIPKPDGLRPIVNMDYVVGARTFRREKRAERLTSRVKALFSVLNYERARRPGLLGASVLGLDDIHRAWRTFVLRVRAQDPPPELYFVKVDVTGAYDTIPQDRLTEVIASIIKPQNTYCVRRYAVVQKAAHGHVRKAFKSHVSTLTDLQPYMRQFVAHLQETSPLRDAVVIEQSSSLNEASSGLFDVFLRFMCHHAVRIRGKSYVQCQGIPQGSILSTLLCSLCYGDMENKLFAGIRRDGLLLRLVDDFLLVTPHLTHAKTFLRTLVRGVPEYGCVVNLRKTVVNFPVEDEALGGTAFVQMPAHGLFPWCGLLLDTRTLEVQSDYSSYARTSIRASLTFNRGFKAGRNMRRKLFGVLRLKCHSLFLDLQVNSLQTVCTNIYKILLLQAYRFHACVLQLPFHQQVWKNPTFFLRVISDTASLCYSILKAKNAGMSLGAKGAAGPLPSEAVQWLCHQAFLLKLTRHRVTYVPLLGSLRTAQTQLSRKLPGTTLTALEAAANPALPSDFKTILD
T1 sequence (O60832 whole entry partner): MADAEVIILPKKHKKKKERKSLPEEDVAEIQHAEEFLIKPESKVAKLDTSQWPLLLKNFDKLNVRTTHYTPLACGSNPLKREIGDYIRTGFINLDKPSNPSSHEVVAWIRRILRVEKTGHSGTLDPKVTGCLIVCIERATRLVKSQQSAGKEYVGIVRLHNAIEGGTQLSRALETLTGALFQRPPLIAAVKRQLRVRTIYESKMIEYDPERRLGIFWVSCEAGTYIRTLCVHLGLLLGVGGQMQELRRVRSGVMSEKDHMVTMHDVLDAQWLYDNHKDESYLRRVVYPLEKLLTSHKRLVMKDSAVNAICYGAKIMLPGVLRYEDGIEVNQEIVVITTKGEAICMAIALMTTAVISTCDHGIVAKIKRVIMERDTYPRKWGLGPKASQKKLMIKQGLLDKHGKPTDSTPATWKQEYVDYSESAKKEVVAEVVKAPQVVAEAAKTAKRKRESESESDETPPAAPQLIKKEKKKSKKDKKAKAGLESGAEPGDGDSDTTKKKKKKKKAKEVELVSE
T1 sequence (Q9NPE3 whole entry partner): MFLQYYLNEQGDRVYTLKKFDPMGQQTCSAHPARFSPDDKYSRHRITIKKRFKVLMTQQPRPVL
T1 sequence (Q9NX24 whole entry partner): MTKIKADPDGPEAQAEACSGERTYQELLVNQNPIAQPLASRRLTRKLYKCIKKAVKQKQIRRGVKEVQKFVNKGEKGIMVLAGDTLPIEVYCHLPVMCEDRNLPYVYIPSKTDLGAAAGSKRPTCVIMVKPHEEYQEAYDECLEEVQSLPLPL
T1 sequence (Q9NY12 whole entry partner): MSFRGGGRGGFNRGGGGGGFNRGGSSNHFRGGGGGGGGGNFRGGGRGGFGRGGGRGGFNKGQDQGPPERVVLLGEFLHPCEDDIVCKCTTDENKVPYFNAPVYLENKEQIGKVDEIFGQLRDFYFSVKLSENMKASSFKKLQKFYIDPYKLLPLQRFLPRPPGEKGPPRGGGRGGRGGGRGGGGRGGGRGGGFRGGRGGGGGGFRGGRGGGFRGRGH
Procedure: Telomerase is known to be phosphorylated, so whether the KU55933 or Olaparib treatment of cells might directly affect telomerase activity was examined. […] ATM kinase is a positive regulator of telomere elongation in both mouse and human cells, and the effects of ATM inhibition are not due to inhibition of telomerase enzyme activity.
Telomerase activity was assayed in whole cell lysates with a modified protocol (Nandakumar et al., 2012, Nature 492, 285-289). 293TREx-0611 cells overexpressing TPP1, POT1, and hTERT were seeded (3×10^5 cells) per well in a poly-D-Lysine coated 6-well plate. The next day, cells were transfected with U1-hTR using Lipofectamine™ 3000 and incubated overnight. Then, they were treated with 30 μM KU55933, 5 μM Olaparib, or DMSO for two hours before harvesting in 100 μl 1×CHAPS. Cells were lysed on ice for 30 minutes, vortexing occasionally, and cleared by spinning (8000 rpm, 20 min, 4° C.). For negative controls, 25 μl cleared lysate was incubated at 65° C. with 1 μl RNaseA (1 mg/ml) for 10 minutes. For direct telomerase assays, lysates were incubated with primer a5 (Wang et al., 2007) in 1× telomerase buffer (50 mM Tris-Cl, 30 mM KCl, 1 mM MgCl2, 1 mM spermidine), 0.5 mM dTTP, 0.5 mM dATP, 2.92 μM dGTP, and 0.33 μM α32P-dGTP at 30° C. Reactions were stopped at 10 or 15 minutes with 20 mM EDTA, 10 mM Tris spiked with 500 cpm end-labeled 18mer. […]

HT1080 cells = experiment: Bulk telomere length, Southern blot, HT1080; assay type: cell-based, human
PARP1 = experiment: Western blot of PARylation with antibody against poly ADP-ribose; assay type: cell-based; details: antibody directed against poly ADP-ribose
Procedure: To examine activation of ATM kinase pathway in response to PARP1 inhibition the phosphorylation levels of KAP1, in response to the PARP1 inhibitor, Olaparib was measured.
To detect phospho-proteins, 1× lysis buffer made of final concentration of 1×RIPA™ (Cell Signaling, #98016S), 1× protease inhibitor cocktail, 1× PhosSTOP™ (Roche, 4906845001) was added directly to cells on the dish after washing with PBS. Protein concentration was measured with a BCA protein assay kit (Thermo, #23227). Typically 10 μg of protein from each sample was applied to SDS-PAGE gels (Biorad, #456-1084) and transferred to nitrocellulose membranes in transfer buffer. After blocking with the Odyssey™ blocking buffer (LI-COR, #927-40000), membranes were incubated at 4° C. overnight or 1 hr at RT with the following primary antibodies: anti-phospho-Kap1 (Bethyl Lab, #A300-767A); anti-phospho-CHK1 (Cell Signaling, #2348S); anti-phospho-ATM (Millipore, #05-740); anti-HA (Santa Cruz, #sc-7392); anti-Actin (Santa Cruz, #sc-1616); anti-PAR (Trevigen, #4335-MC-100). The following day, blots are washed with 1×PBS− T for 3×15 minutes, and then incubated with secondary antibodies conjugated to near-infrared dyes (IRDye® 680 anti-goat, 800 anti-rabbit, 800 anti-mouse, LI-COR). […] Band intensities were quantified using the Odyssey™ software (LI-COR) and normalized to Actin levels. […]

tankyrases = details: in vitro assays; cited from earlier work

O=c1cc(-c2cccc3c2Sc2ccccc2S3)oc(N2CCOCC2)c1 [KU55933]
de novo telomere addition / telomere elongation in ADDIT assay (in words) (SL13 cells [1]): significantly fewer telomere elongation products | percentage of CCS reads with de novo telomere addition (mean and SEM) (SL13 cells [1]): 12.45±1.16% | bulk telomere length (human HCT116): telomere shortening | telomere elongation on overexpression of telomerase (Southern blot) (SL13 cells [2]): blocked this telomere elongation | telomerase activity (telomerase): no change in telomerase activity | bulk telomere length (HT1080 cells): shortens bulk telomeres

O=C(c1cc(Cc2n[nH]c(=O)c3ccccc23)ccc1F)N1CCN(C(=O)C2CC2)CC1 [Olaparib]
PARylation (PARP1): inhibited PARylation | de novo telomere addition / telomere elongation in ADDIT assay (in words) (SL13 cells [1]): small increase in telomere elongation | percentage of CCS reads with de novo telomere addition (mean and SEM) (SL13 cells [1]): 26% and 26.1±1.19% | telomerase activity (telomerase): no change in telomerase activity | effect on tankyrases (tankyrases): little effect on tankyrases

— patent US20180110777A1, “METHOD FOR REGULATION OF TELOMERE LENGTH” (The Johns Hopkins University, priority 2015, published 2018)
